Some test systems named below: HT29 colon; MOLT-4 leukemia; MCF7 breast; HL-60(TB) leukemia; U251 CNS; P388/ADR leukemia; SNB-78 CNS; KM20L2 colon; LOX IMVI melanoma; DMS 114 small cell lung.
What all share (assay): NCI tumour cell line growth inhibition, 48 h

Several values for one entry are separate records, joined by “and”; a condition that tells them apart may be missing. Equal entries are not always repeated.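 All cell lines were grown in 96-well plates and treated with compound for 48 hours. At the GI50, growth is halved. TGI: concentration producing complete growth inhibition.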

Regarding `CCOC(=O)c1c(NC(=S)NCc2ccccc2)sc2c1CCN(C)C2`, the TGI is greater than 100 µM in the experiment on HT29 colon, 51 µM in the experiment on MOLT-4 leukemia, greater than 100 µM in the experiment on MCF7 breast and 36.2 µM with HL-60(TB) leukemia.
In the case of `CC(C)(C)CC(C)(C)Cc1ccc(OCCOCC[N+](C)(C)Cc2ccccc2)cc1`, the GI50 was 1.5 µM with HT29 colon, 1.56 µM in the experiment on U251 CNS and 0.365 µM in the experiment with HL-60(TB) leukemia. Also, the values for the TGI in the experiment on HT29 colon, in the experiment with U251 CNS and with HL-60(TB) leukemia were 3.1 µM, 3.08 µM and 1.93 µM, respectively.
For `CN1CCN(c2ccc3nc(-c4ccc(OCCCN5C(=O)c6cccc7cccc(c67)C5=O)cc4)[nH]c3c2)CC1`, in the experiment on MOLT-4 leukemia, the GI50 is 2.06 µM and the TGI stood at 5.05 µM. Moreover, in the experiment with HL-60(TB) leukemia, the GI50 was 3.13 µM and the TGI came out at 7.41 µM.
As for `COc1cc2c(cc1-c1c(C)noc1C)ncc1nc(C3CCCCC3)n(C3CCC(OC(F)F)CC3)c12` (stereo not given), in the experiment on MCF7 breast, the GI50 is 0.584 µM and the TGI was greater than 100 µM. In the experiment on HL-60(TB) leukemia, the GI50 was 1.26 µM and the TGI was determined as 3.97 µM.
For the molecule `COc1cccc2c1C(=O)c1c(O)c3c(c(O)c1C2=O)C[C@@](O)(C(C)=O)C[C@@H]3OC1CC(N)C(O)C(C)O1` (stereo not given in full), the TGI in the experiment with P388/ADR leukemia is 9.87 µM; in the experiment on SNB-78 CNS it was 2.49 µM and 3.43 µM; with KM20L2 colon it was 2.86 µM and 1.45 µM and > 5.01 µM. The results for the GI50 in the experiment with SNB-78 CNS, in the experiment with HT29 colon and in the experiment with U251 CNS were 0.184 µM, 0.0246 µM and less than 0.0145 µM, respectively.
As for `NC(=O)c1cc2ccccc2c(N=Nc2ccccc2)c1O`, the TGI was greater than 100 µM with LOX IMVI melanoma, greater than 100 µM in the experiment with HT29 colon, 49.2 µM in the experiment with U251 CNS and greater than 100 µM with MOLT-4 leukemia.
As to `CCP(=O)(CC)C(Cl)(Cl)C(=O)NC`, the TGI in the experiment on LOX IMVI melanoma, with HT29 colon, with U251 CNS, with MOLT-4 leukemia and in the experiment on HL-60(TB) leukemia was greater than 100 µM throughout.
For `N#Cc1ccc(Nc2nc3nc[nH]c3c(=O)[nH]2)cc1`, the TGI in the experiment with LOX IMVI melanoma, in the experiment with HT29 colon, with U251 CNS, in the experiment on MOLT-4 leukemia, in the experiment with MCF7 breast and in the experiment on HL-60(TB) leukemia was greater than 100 µM each time.
As to `CC(=O)OC1CC2(O)C(CCC3(C)C(c4ccc(=O)oc4)CCC32O)C2(C)CCC(O)C=C12` (stereo not given), the GI50 was 69.5 µM with P388/ADR leukemia; 0.0375 µM in the experiment on SNB-78 CNS; 0.0375 µM with LOX IMVI melanoma; 0.0592 µM in the experiment on HT29 colon; 0.0375 µM in the experiment with KM20L2 colon; 0.0375 µM in the experiment with U251 CNS. The GI50 in the experiment with MCF7 breast is 0.0173 µM; with HL-60(TB) leukemia it was 0.0375 µM. The TGI was 261 µM with P388/ADR leukemia; 0.47 µM and 0.0866 µM in the experiment on SNB-78 CNS; 0.126 µM and 0.0573 µM in the experiment on LOX IMVI melanoma; 0.0164 µM with DMS 114 small cell lung; 0.191 µM and 0.187 µM with KM20L2 colon; 0.151 µM and 0.109 µM in the experiment with U251 CNS. Also, the TGI is 0.0054 µM with MOLT-4 leukemia; 0.188 µM and 0.181 µM in the experiment with MCF7 breast; 0.0144 µM and 0.071 µM in the experiment with HL-60(TB) leukemia.
Turning to `O=c1c(-c2ccccc2)c[nH]c2cc([N+](=O)[O-])c(/C(Cl)=C/c3ccccc3)cc12`, the TGI is greater than 45.3 µM with P388/ADR leukemia; greater than 27 µM with SNB-78 CNS; greater than 22.5 µM with LOX IMVI melanoma; greater than 51.6 µM in the experiment on HT29 colon; 19 µM in the experiment with DMS 114 small cell lung; greater than 54.3 µM in the experiment with KM20L2 colon. Moreover, the values for the TGI with U251 CNS, with MOLT-4 leukemia and in the experiment with HL-60(TB) leukemia were 24.4 µM, 24 µM and 31.6 µM, respectively.
Turning to `Cc1c2cc[n+](C)cc2c(C)c2c1[nH]c1ccc(O)cc12`, the TGI with P388/ADR leukemia is greater than 77.4 µM; in the experiment with SNB-78 CNS it was greater than 100 µM; in the experiment on LOX IMVI melanoma it was greater than 96.4 µM; in the experiment with HT29 colon it was greater than 81.1 µM; with DMS 114 small cell lung, 69.6 µM; with KM20L2 colon, greater than 100 µM. In addition, the TGI in the experiment with U251 CNS is 25 µM; in the experiment on MOLT-4 leukemia, 58.3 µM; in the experiment on MCF7 breast, greater than 39.4 µM; with HL-60(TB) leukemia, greater than 87.9 µM.
For the molecule `Cc1c2cc[n+](C)cc2c(COC2OC(CO)C(O)C2O)c2c3ccccc3n(C)c12` (stereo not given), the TGI in the experiment on P388/ADR leukemia, in the experiment with SNB-78 CNS, with LOX IMVI melanoma, in the experiment on HT29 colon, with DMS 114 small cell lung and in the experiment with KM20L2 colon was greater than 100 µM in each case. Moreover, the TGI with U251 CNS, with MOLT-4 leukemia, in the experiment on MCF7 breast and in the experiment with HL-60(TB) leukemia was greater than 100 µM throughout.

(Values after PubChem BioAssay (NCI).)
